This note sets out measurements from patent US8933267B2, “Compounds for use as anti-ulcer agent and/or anti-Helicobacter pylori agent and pharmaceutical compositions thereof” (King Saud University, priority 2013, dated 2015).

Data set [1] deals with H. pylori clinical isolates KA1-KA7 and ATCC 43504. Kind of data set: Anti-Helicobacter pylori activity, disk diffusion method. The format is cell-based. The following applies: for susceptibility by disc diffusion (in words): all the isolates of H. pylori. The protocol: Clinical isolates were symbolized from KA1 to KA7. Isolates were grown in Brucella agar plates (Difco, Detroit, Mich., USA) containing 10% v/v sheep serum at 37° C. Identification was carried out using Gram stain and catalase, oxidase and urea hydrolysis activities. Helicobacter pylori ATCC 43504 was used as control. Determination of the amino acid-sulfanilamide hybrid activity against H. pylori was carried out using disk diffusion method (McNulty C, Owen R., Tompkins […]., Price A., Smith G. and […]. (2002). Helicobacter pylori susceptibility testing by disc diffusion. Journal of Antimicrobial Chemotherapy, 49: 601-609). The amino acid-sulfanilamide hybrid compound was dissolved in 2% Tween (v/v), in order to obtain final concentration of 2 mg/ml.

Data set [2] has as its system absolute alcohol-induced ulcer in rats. Kind of data set: Antiulcerogenic activity, absolute ethanol-induced ulcer model. Format: in vivo, male Wistar rats. The method, then:
Evaluation of the anti-ulcerogenic activity was carried out using absolute ethanol-induced ulcer model (Bighettia A. E., Antonio M. A., Kohna L. K., Rehdera V. L. G., Foglioa M. A., Possentia A., Vilelaa L., Carvalho J. E. (2005). Antiulcerogenic activity of a crude hydroalcoholic extract and coumarin isolated from Mikania laevigata Schultz Bip. Phytomedicine, 12, 72-77). Thirty male Wistar rats were divided into 5 groups each of 6 rats. Group 1 received the vehicle and served as control, group 2 received ranitidine (100 mg/kg) and served as standard, groups 3, 4 and 5 received the synthesized compound at doses 25, 50 and 100 mg/kg respectively.
Rats of all groups were fasted for 24 h then all medications were administered orally. One hour after treatment, the animals received an oral dose of absolute ethanol (1 ml/200 g) and then sacrificed one hour later, by ether inhalation, the stomachs were rapidly removed, opened along their greater curvature and gently rinsed under running tap water.
Number of lesions in the glandular part of the stomach were measured under an illuminated magnifying microscope (10×). Long lesions were counted and their lengths were measured. Petechial lesions were counted, and then each five petechial lesions were taken as 1 mm of ulcer.
The lesion scores: The mucosal lesions were quantified by the scoring system (0-5) 0=no damage, 1=Local edema and inflammation without ulcers; 2=One ulcer without inflammation; 3=one to two ulcers with inflammation & lesion diameter <1 cm; 4=More than two ulcers with lesion diameter 1-2 cm; 5=Sever ulceration with lesion diameter >2 cm (Morris et al., 1989).
Ulcer index: To calculate the ulcer index (mm), the sum of the total length of long ulcers and petechial lesions in each group of rats was divided by its number. The curative ratio was determined according to the formula: % Protection of control ulcer=Control UI−Test UI/Control UI×100

The subject of data set [3] is H. pylori clinical isolates KA1-KA7 and ATCC 43504. Kind of data set: Minimum inhibitory concentration (MIC), broth microdilution assay. The format is cell-based. The following applies: Helicobacter pylori. The method, then:
A total of seven clinical isolates of H. pylori were isolated from 19 biopsies received from patients diagnosed with gastritis or peptic ulcer disease at Al-Kasr Al-Ainy hospital, Cairo, Egypt. Clinical isolates were symbolized from KA1 to KA7. Isolates were grown in Brucella agar plates (Difco, Detroit, Mich., USA) containing 10% v/v sheep serum at 37° C.
Identification was carried out using Gram stain and catalase, oxidase and urea hydrolysis activities. Helicobacter pylori ATCC 43504 was used as control.
The Minimum inhibitory concentration (MIC) was carried out by the broth microdilution assay (EUCAST, 2003). A total of 100 μL of BHI broth supplemented with 10% defibrinated sheep blood inoculated with 6×10^8 H. pylori (McFarland turbidity standard 2) and 100 μL A of serial dilutions of amino acid-sulfanilamide hybrid compound dissolved in 2% Tween (v/v) was added to each well in the microplate, to reach final concentrations of 12.5; 25; 50; 100; 200; 400 and 800 μg/ml. The microplate was incubated at 37° C. under microaerophilic conditions in an atmosphere of 5-15% O2 and 5-10% CO2, for 48-72 h. After incubation, the plates were visually examined, the optical density was determined at 450 nm and each well was replicated in blood agar (Mueller-Hinton agar with 5% sheep blood), to determine the MIC.
(In general: In broth dilution the organism is exposed to a series of concentrations in liquid medium.)

In data set [4] the test system is liver and kidney functions of rats. Kind of data set: Effect on liver and kidney functions. The format is in vivo, Male Wister rats. Particulars: 100 mg/kg orally for 15 days. The method, then: Male Wister rats were divided into 2 equal groups each of 10 rats. The 1st group was left as a control and administrated the vehicle orally, while the 2nd group was orally administrated the synthesized compound in a dose of 100 mg/kg for 15 days. After the examination period, 6 hr after the last dose blood samples were collected from the orbital plexus of rats. Samples were left to clot at room temperature for 30 min then centrifuged at 1000 rpm for 20 min. The collected sera were used for determination of the activity of both (AST) aspirate aminotransferase and (ALT) alanine aminotransferase as liver markers. In addition, levels of blood urea, serum creatinine were also estimated as kidney markers ([…]., Al-Jaber N. A., Moses […]. and Zain M. E. (2013). Antiulcerogenic Activities of the Extracts and Isolated Flavonoids of Euphorbia cuneata Vahl. Phytother. Res. 27: 126-130).

Where [5] appears, read: rat serum, 6 hr after last dose, mean ± SD, n=10.

SMILES strings stand for the structures. In brackets after ≈: the same amount, converted by molar mass. Marks after values point to notes of the source that are not given here.

On to `CC1(C)S[C@@H]2[C@H](NC(=O)[C@H](N)c3ccc(O)cc3)C(=O)N2[C@H]1C(=O)O` [Amoxicillin, amoxicillin], for which the Inhibition zone stood at 33 mm in data set [1] (H. pylori ATCC 43504, disk (30 μg)); 22 mm in data set [1] (H. pylori KA1, disk (30 μg)); 23 mm in data set [1] (H. pylori KA2, disk (30 μg)); 24 mm in data set [1] (H. pylori KA3, disk (30 μg)); 23 mm in data set [1] (H. pylori KA4, disk (30 μg)); 25 mm in data set [1] (H. pylori KA5, disk (30 μg)). The Inhibition zone is recorded as 26 mm in data set [1] (H. pylori KA6, disk (30 μg)) and 27 mm in data set [1] (H. pylori KA7, disk (30 μg)). Besides, in data set [1], the “susceptibility by disc diffusion (in words)” value (from here on “susceptibility”) is “sensitive”.

Usually MIC stands for the lowest concentration found to suppress growth. Lower therefore signals greater potency. Take `CC(C)CC(NCC(=O)Nc1ccc(S(N)(=O)=O)cc1)C(=O)O` (stereo not shown) [Compound 5, 4-Methyl-2-[2-oxo-2-(4-sulfamoylphenylamino)ethylamino]pentanoic acid]: the Inhibition zone in data set [1] (H. pylori ATCC 43504, disk (2 mg)) was 16 mm; in data set [1] (H. pylori KA1, disk (2 mg)), 18 mm; in data set [1] (H. pylori KA2, disk (2 mg)) it was 15 mm; in data set [1] (H. pylori KA3, disk (2 mg)), 16 mm; in data set [1] (H. pylori KA4, disk (2 mg)), 15 mm; in data set [1] (H. pylori KA5, disk (2 mg)), 15 mm. Further, the Inhibition zone in data set [1] (H. pylori KA6, disk (2 mg)) is reported as 17 mm; in data set [1] (H. pylori KA7, disk (2 mg)), 19 mm. Also, in data set [1], the “susceptibility” value is recorded as “sensitive”. The entries for the “% protection (of control ulcer)” value in data set [2] (oral 25 mg/kg), in data set [2] (oral 50 mg/kg) and in data set [2] (oral 100 mg/kg) were 16.7%, 59% and 66.7%, respectively. For the same compound, the “score (lesion score 0-5)” value in data set [2] (oral 25 mg/kg) amounted to 2.2; in data set [2] (oral 50 mg/kg) it was 1.6; in data set [2] (oral 100 mg/kg), 1.4. The no of ulcers in data set [2] (oral 25 mg/kg, mean, n=6) is on record as 11.1*; in data set [2] (oral 50 mg/kg, mean, n=6), 8**; in data set [2] (oral 100 mg/kg, mean, n=6), 6.2***. For the same compound, the “anti-ulcerogenic activity (in words)” value in data set [2] (oral 25-100 mg/kg) is on record as “potent dose dependent anti-ulcerogenic activity”. Further, the MIC stood at 50 µg/mL (≈ 146 µM) in data set [3] (ATCC43504, H. pylori ATCC 43504); 50 µg/mL (≈ 146 µM) in data set [3] (ATCC43504, H. pylori KA1); 50 µg/mL (≈ 146 µM) in data set [3] (ATCC43504, H. pylori KA2); 50 µg/mL (≈ 146 µM) in data set [3] (ATCC43504, H. pylori KA3); 50 µg/mL (≈ 146 µM) in data set [3] (ATCC43504, H. pylori KA4); 50 µg/mL (≈ 146 µM) in data set [3] (ATCC43504, H. pylori KA5). In addition, the MIC was 25 µg/mL (≈ 72.8 µM) in data set [3] (ATCC43504, H. pylori KA6) and 12.5 µg/mL (≈ 36.4 µM) in data set [3] (ATCC43504, H. pylori KA7). The ALT in data set [4] (setting [5]) came to 38.67 ± 0.22 U/l. In data set [4] (setting [5]), this compound yielded an AST of 63.23 ± 0.39 U/l. Also, the Creatinine in data set [4] (setting [5]) was determined as 0.85 ± 0.02 mg/dL. The hepatotoxic manifestation entry in data set [4] (rats) was “didn't reveal hepatotoxic manifestation”. For the same compound, the nephrotoxic manifestations entry in data set [4] (rats) is recorded as “no apparent nephrotoxic manifestations”. For the same compound, the “Blood Urea” value in data set [4] (rats, 6 hr after last dose, mean ± SD, n=10) was determined as 65.50 ± 1.9 mg/dL.

For the compound `CC[C@H]1OC(=O)[C@H](C)[C@@H](O[C@H]2C[C@@](C)(OC)[C@@H](O)[C@H](C)O2)[C@H](C)[C@@H](O[C@@H]2O[C@H](C)C[C@H](N(C)C)[C@H]2O)[C@](C)(O)C[C@@H](C)C(=O)[C@H](C)[C@@H](O)[C@]1(C)O` [Erythromycin, erythromycin], the Inhibition zone in data set [1] (H. pylori ATCC 43504, disk (15 μg)) came to 29 mm; in data set [1] (H. pylori KA1, disk (15 μg)), 21 mm; in data set [1] (H. pylori KA2, disk (15 μg)) it was 22 mm; in data set [1] (H. pylori KA3, disk (15 μg)) it was 24 mm; in data set [1] (H. pylori KA4, disk (15 μg)), 23 mm; in data set [1] (H. pylori KA5, disk (15 μg)) it was 21 mm. Further, the Inhibition zone in data set [1] (H. pylori KA6, disk (15 μg)) is given as 25 mm; in data set [1] (H. pylori KA7, disk (15 μg)), 24 mm. Besides, in data set [1], the “susceptibility” value is “sensitive”.

In the case of `CNC(=C[N+](=O)[O-])NCCSCc1ccc(CN(C)C)o1` [Ranitidine, ranitidine, reference compound], in data set [2] (oral 100 mg/kg), the “% protection (of control ulcer)” value was 45.05% and the “score (lesion score 0-5)” value amounted to 2.2. Besides, in data set [2] (oral 100 mg/kg, mean, n=6), the no of ulcers is 6.9*** and the ulcer index was 6.0* mm.
